System: ara-C metabolic pathway genes
Test: Association of ara-C pathway SNP genotypes with MRD1, EFS and OS in AML02 (logistic regression and Cox models; also within LDAC and HDAC arms)
Set-up: species or system human
Conditions: within arm of AML02
Excerpt: Genomic DNA from patients enrolled in the multi-site St. Jude AML02 trial was genotyped for 155 SNPs in 16 genes of relevance to ara-C pharmacology using sequenom iPlex platform that uses MALDI-TOF based chemistry at University of Minnesota, Biomedical Genomics Center. SNPs were selected based on previously reported studies. For SNPs lacking literature on genetic variation, SNPs were selected to capture LD blocks (European and African ancestry) on a gene. Of 155 SNPs, 1 SNP was excluded due to low call rate (<90%), 47 SNPs were excluded due to minimum allele frequency of less than 5%, 11 SNPs were excluded due to high LD (r^2>0.9) with other SNPs; two SNPs were excluded because of deviation from Hardy-Weinberg equilibrium. Genotype for the COG-AAML0531 cohort for the selected SNPs was obtained using sequenom platform or TaqMan genotyping assays, and for a few SNPs was extracted from the data available on Illumina 2.5 Omni array. Genotype calls from multiple platforms were confirmed across multiple samples randomly collected from the cohort.
SNP genotype groups in three different modes of inheritance (additive, dominant, and recessive) were tested for association with MRD1 using logistic regression models. Odds ratio (OR) and 95% confidence interval (CI) were calculated for each test. SNPs with association P-value<0.05 were considered significant. Cox-proportional hazard models were used to evaluate association of genotype groups with EFS or OS. Hazard ratio (HR) and 95% CI were calculated for each test. p-value<0.05 was considered statistically significant. Given initial risk group assignments are well-established prognostic factors associated with outcome, outcome association analysis of SNPs with and without adjusting for risk group was also performed to identify SNPs that are associated with outcome independent of risk group.
SNPs with p<0.15 in risk-adjusted univariate evaluation with clinical endpoints (MRD1, EFS, and OS) were tested for all possible combinations with a maximum of three SNPs per model in multivariable logistic regression models for association with MRD1 and Cox-proportional hazard models for association with EFS and OS. Analysis for up to 3 SNP combinations was restricted due to computational challenges as increasing the maximum number of SNPs per model drastically increases the number of models as 1000 permutations were run for each model. Models were ordered according to their Bayesian Information Criterion (BIC) and weight in favor of each model. One thousand permutation tests were performed for each model to determine statistical significance. The six unique SNPs from the most significant models for EFS and MRD1 were included in the development of the ACS10 score as described in the results section.
The multicenter AML02 clinical trial randomly assigned subjects to receive low dose ara-C (LDAC: 100 mg/m^2; n=91 patients) or high dose ara-C(HDAC: 3 g/m^2; n=75 patients) in combination with daunorubicin and etoposide as the first course of chemotherapy as described above in patient cohort section. Thus, the association of SNPs with outcome within each arm separately was also explored (Table 5).

[1] = rs4917384 (NT5C2, WT C, VAR T), MOI D
[2] = rs4980345 (SLC28A1, WT G, VAR A), MOI A
[3] = rs6552622 (DCTD, WT C, VAR G), MOI D
[4] = rs6742272 (RRM2, WT C, VAR G), MOI A
[5] = rs6834938 (DCTD, WT C, VAR T), MOI R
[6] = rs6946062 (NT5C3, WT T, VAR C), MOI D
[7] = rs7533657 (CTPS1, WT C, VAR T), MOI R
[8] = rs7543016 (CMPK1, WT C, VAR G), MOI R
[9] = rs7776847 (NT5C3, WT G, VAR A), MOI A
[10] = rs7874528 (SLC28A3, WT G, VAR T), MOI D
[11] = rs10252880 (NT5C3, WT G, VAR C), MOI A
[12] = rs10767827 (RRM1, WT G, VAR T), MOI D
[13] = rs10786736 (NT5C2, WT G, VAR C), MOI D
[14] = rs10916819 (CDA, WT A, VAR G), MOI D
[15] = rs11140525 (SLC28A3, WT G, VAR A), MOI A
[16] = rs11191558 (NT5C2, WT G, VAR A), MOI D
[17] = rs11737887 (DCTD, WT T, VAR C), MOI A
[18] = rs12554292 (SLC28A3, WT C, VAR T), MOI D
[19] = rs12806698 (RRM1, WT C, VAR A), MOI D
[20] = rs17103168 (CMPK1, WT A, VAR G), MOI D

## Nc1ccn([C@@H]2O[C@H](CO)[C@@H](O)[C@@H]2O)c(=O)n1 [LDAC, cytarabine]
[1]
  EFS HR (95% CI): 1.04 (0.76-1.44)
  MRD1 OR (95% CI): 0.78 (0.51-1.19)
  OS HR (95% CI): 0.87 (0.58-1.29)
[2]
  EFS HR (95% CI): 1.81 (1-3.26)
  MRD1 OR (95% CI): 1.08 (0.45-2.58)
  OS HR (95% CI): 1.84 (0.95-3.55)
[3]
  EFS HR (95% CI): 1.05 (0.7-1.59)
  MRD1 OR (95% CI): 0.86 (0.49-1.49)
  OS HR (95% CI): 1.22 (0.77-1.94)
[4]
  EFS HR (95% CI): 1.5 (0.95-2.36)
  MRD1 OR (95% CI): 0.49 (0.25-0.96)
  OS HR (95% CI): 1.43 (0.83-2.48)
[5]
  EFS HR (95% CI): 1.4 (0.83-2.35)
  MRD1 OR (95% CI): 1.92 (0.82-4.48)
  OS HR (95% CI): 1.75 (1.02-3)
[6]
  EFS HR (95% CI): 0.75 (0.54-1.04)
  MRD1 OR (95% CI): 0.94 (0.61-1.46)
  OS HR (95% CI): 0.58 (0.39-0.87)
[7]
  EFS HR (95% CI): 1.12 (0.62-2.02)
  MRD1 OR (95% CI): 0.9 (0.36-2.27)
  OS HR (95% CI): 1.05 (0.51-2.16)
[8]
  EFS HR (95% CI): 0.85 (0.55-1.32)
  MRD1 OR (95% CI): 2.01 (1.13-3.58)
  OS HR (95% CI): 0.67 (0.37-1.23)
[9]
  EFS HR (95% CI): 1.15 (0.64-2.09)
  MRD1 OR (95% CI): 0.92 (0.42-2)
  OS HR (95% CI): 1.91 (1.01-3.62)
[10]
  EFS HR (95% CI): 0.97 (0.66-1.44)
  MRD1 OR (95% CI): 1.93 (1.12-3.32)
  OS HR (95% CI): 0.89 (0.54-1.45)
[11]
  EFS HR (95% CI): 1.21 (0.74-1.98)
  MRD1 OR (95% CI): 0.97 (0.51-1.82)
  OS HR (95% CI): 1.98 (1.13-3.44)
[12]
  EFS HR (95% CI): 1.09 (0.76-1.57)
  MRD1 OR (95% CI): 0.98 (0.6-1.61)
  OS HR (95% CI): 0.97 (0.61-1.53)
[13]
  EFS HR (95% CI): 1.45 (1.03-2.03)
  MRD1 OR (95% CI): 1.1 (0.66-1.83)
  OS HR (95% CI): 1.37 (0.9-2.08)
[14]
  EFS HR (95% CI): 1.77 (1.14-2.75)
  MRD1 OR (95% CI): 1.75 (1.08-2.83)
  OS HR (95% CI): 2.05 (1.12-3.74)
[15]
  EFS HR (95% CI): 0.98 (0.63-1.54)
  MRD1 OR (95% CI): 1.44 (0.81-2.58)
  OS HR (95% CI): 1.16 (0.68-1.97)
[16]
  EFS HR (95% CI): 1.49 (1.05-2.1)
  MRD1 OR (95% CI): 0.96 (0.56-1.64)
  OS HR (95% CI): 1.32 (0.85-2.05)
[17]
  EFS HR (95% CI): 1.39 (0.73-2.66)
  MRD1 OR (95% CI): 0.95 (0.4-2.25)
  OS HR (95% CI): 1.76 (0.8-3.86)
[18]
  EFS HR (95% CI): 0.71 (0.42-1.2)
  MRD1 OR (95% CI): 1.26 (0.72-2.21)
  OS HR (95% CI): 0.78 (0.43-1.42)
[19]
  EFS HR (95% CI): 0.98 (0.69-1.39)
  MRD1 OR (95% CI): 1.14 (0.72-1.8)
  OS HR (95% CI): 1.19 (0.79-1.79)
[20]
  EFS HR (95% CI): 0.96 (0.69-1.32)
  MRD1 OR (95% CI): 0.55 (0.35-0.87)
  OS HR (95% CI): 1.03 (0.69-1.52)
